Measurements as given in patent US7687497B2, “C10-substituted camptothecin analogs” (priority 2007, dated 2010).
Read-outs that look alike come from different tables or passages of the source.

Tests used:
[1] = system: A2780/WT (wild-type) cells; assay: Sulforhodamine B (SRB) cytotoxicity assay in A2780/WT cells; type: cell-based; details: Homo sapiens, A2780, read-out: A2780/WT (nM)
Protocol: (§1) Each of the testing conditions used in this study in both A2780/WT (wild-type) and A2780/DX5 cells were repeated in five to fifteen experiments that were performed on separate days. Each experiment consisted of one microtiter plate with at least eight individual assays of a given drug treatment condition on the plate. The sulforhodamine B (SRB) assay was used to assess cytotoxicity and absorbance at 570 nm (A570) in order to calculate the percentage of cell control (or percent cell survival) for the various treatment conditions in the plate wells.
Roswell Park Memorial Institute (RPMI 1640) medium, fetal bovine serum (FBS), and L-glutamine were purchased from Gibco BRL. […]
Cells were manipulated in a Class IIA/B3 Biological Safety Cabinet (Forma Scientific) and maintained at 37° C. in a humidified atmosphere containing 5% CO2 in a water-jacketed cell culture incubator (Forma Scientific). Cells were counted using a Coulter-Z1 counter (Beckman-Coulter). […] Percentage of control was correlated to A570 values and determined using a Model EL800 plate reader (Bio-Tek Instruments).
Population doubling times for the two cell lines used in this study encompassed a total of five cell doublings corresponding to approximately 5 days for A2780/WT and A2780/DX5 cells. […] Prior to SRB assays, cell viability was monitored by evaluation of microtiter plate wells. […]

A2780/DX5 cells = assay: Sulforhodamine B (SRB) cytotoxicity assay in A2780/DX5 cells; type: cell-based; details: for IC50 Ratio: A2780/DX5 versus A2780/WT; for IC50: Homo sapiens, A2780, read-out: A2780/DX5 (nM)
Protocol: as §1
Roswell Park Memorial Institute (RPMI 1640) medium, fetal bovine serum (FBS), and L-glutamine were purchased from Gibco BRL. Drugs were dissolved in sterile dimethylsulfoxide (DMSO), from American Type Culture Collection (ATCC) for stock solutions (2.5 to 5.0 mM). Subsequent dilutions were made using cell culture medium (prior to adding the drug to cells). SRB was purchased from Sigma and dissolved in 1.0% acetic acid. Trichloroacetic acid was purchased from VWR International.
Cells were manipulated in a Class IIA/B3 Biological Safety Cabinet (Forma Scientific) and maintained at 37° C. in a humidified atmosphere containing 5% CO2 in a water-jacketed cell culture incubator (Forma Scientific). Cells were counted using a Coulter-Z1 counter (Beckman-Coulter). Following drug treatment, plates were washed using a Biomek 2000 station (Beckman) and, following exposure to SRB dye, plates were washed using an automated plate washer (Model EL404, Bio-Tek Instruments). Percentage of control was correlated to A570 values and determined using a Model EL800 plate reader (Bio-Tek Instruments).
Population doubling times for the two cell lines used in this study encompassed a total of five cell doublings corresponding to approximately 5 days for A2780/WT and A2780/DX5 cells. A2780/WT and A2780/DX5 cells were cultured in RPMI 1640 medium supplemented with 10% fetal bovine serum and 1 mM of L-glutamine. Both cell lines were maintained as monolayered cultures in T-25 or T-75 flasks and then seeded to microtiter plate wells for experiments described herein. Prior to SRB assays, cell viability was monitored by evaluation of microtiter plate wells. […]
The sulforhodamine B (SRB) cytotoxicity assay (see, Skehan P, et al., New colorimetric cytotoxicity assay for anticancer-drug screening. J. Natl. Cancer Inst. 82:1107-1112 (1990)) was used to determine the cytotoxic effects of BNP1350, SN-38, topotecan, 9-NH2-CPT, and 9-NO2-CPT on cell growth in vitro. […] Plates were agitated (gently) for 5 minutes and the absorbance values of the SRB dye-protein adduct at a 570 nm wavelength (A570) were determined using an automated microtiter plate reader equipped with an A570 filter (Model EL800, BioTek Instruments).

[2] = clinical studies in Japan alone; cited from earlier work
[3] = cited from earlier work
[4] = system: advanced gastrointestinal cancer; details: cited from earlier work
[5] = system: advanced malignant melanoma; details: fifteen patients, 90-360 mg/m^2 repeated every 2 weeks; cited from earlier work
[6] = cited from earlier work; remark: listed apart in the source
human cancer cell lines = assay: In vitro studies on a panel of over 20 human cancer cell lines; type: cell-based
[7] = 5-day course 15 mg/m^2 × 5, 9 patients treated
[8] = 5-day course 17 mg/m^2 × 5, 5 patients treated
[9] = 5-day course 20 mg/m^2 × 5, 10 patients treated
[10] = single dose 110 mg/m^2, 2 patients treated
[11] = single dose 120 mg/m^2, 7 patients treated
[12] = single dose 180 mg/m^2, 9 patients treated
[13] = 5-day course (27 patients total), 4 wks
[14] = 5-day course (27 patients total), 8 wks
[15] = 5-day course (27 patients total), 12 wks
[16] = single-dose method (34 patients total), 3 wks
[17] = single-dose method (34 patients total), 6 wks
[18] = single-dose method (34 patients total), 9 wks
[19] = single-dose method (34 patients total), 12 wks

## CCOC(=O)COc1ccc2nc3c(c(CC[Si](C)(C)C)c2c1)Cn1c-3cc2c(c1=O)COC(=O)[C@]2(O)CC [Compound 9, 7-(2′-Trimethylsilanyl)ethyl-10-(ethoxycarbonylmethoxy) camptothecin]
[1]
  IC50: 73.9 nM
A2780/DX5 cells
  IC50 Ratio: 1.7
  IC50: 123 nM

## CCc1c2c(nc3ccc(OC(=O)N4CCC(N5CCCCC5)CC4)cc13)-c1cc3c(c(=O)n1C2)COC(=O)[C@]3(O)CC [CPT-11, 7-ethyl-10-[4-(1-piperidino)-1-piperidino]carbonyloxy camptothecin]
[2]
  patient deaths directly attributable to drug toxicity: approximately 100 patient deaths

## CC[C@@]1(O)C(=O)OCc2c1cc1n(c2=O)Cc2cc3ccccc3nc2-1 [CPT sodium]
[3]; 5-day course 11 mg/m^2 × 5, 2 patients treated
  No. of patients with cystitis: 1 patients
[3]; [7]
  No. of patients with cystitis: 4 patients
  No. of patients with diarrhea: 1 patients
[3]; [8]
  No. of patients with cystitis: 2 patients
  No. of patients with diarrhea: 4 patients
[3]; [9]
  No. of patients with cystitis: 6 patients
  No. of patients with diarrhea: 4 patients
[3]; 5-day course 22 mg/m^2 × 5, 1 patient treated
  No. of patients with diarrhea: 1 patients
[3]; 5-day course
  Cystitis, 5-Day Course (% of 27 Patients): 48 (P < 0.05) %
[3]; single dose 100 mg/m^2, 6 patients treated
  Number of patients with cystitis: 2 patients
[3]; [10]
  Number of patients with cystitis: 1 patients
  Number of patients with diarrhea: 1 patients
[3]; [11]
  Number of patients with cystitis: 2 patients
  Number of patients with diarrhea: 4 patients
[3]; [12]
  Number of patients with cystitis: 3 patients
  Number of patients with diarrhea: 2 patients
[3]; single dose method
  Cystitis, Single Dose (% of 34 Patients): 24%
[4]; [13]
  Objective results: Improved: 1 patients
  Objective results: Stable: 12 patients
  Objective results: Worse: 14 patients
[4]; [14]
  Objective results: Stable: 7 patients
  Objective results: Worse: 20 patients
[4]; [15]
  Objective results: Stable: 6 patients
  Objective results: Worse: 21 patients
[4]; after 2 months (8 or 9 weeks), of 61 patients
  patients with evidence of partial objective improvement: two
[4]; at 3 months, of 61 patients
  patients who showed improvement: none
[4]; [16]
  Objective results: Improved: 4 patients
  Objective results: Stable: 17 patients
  Objective results: Worse: 13 patients
[4]; [17]
  Objective results: Improved: 2 patients
  Objective results: Stable: 11 patients
  Objective results: Worse: 21 patients
[4]; [18]
  Objective results: Improved: 2 patients
  Objective results: Stable: 8 patients
  Objective results: Worse: 24 patients
[4]; [19]
  Objective results: Stable: 6 patients
  Objective results: Worse: 28 patients
[5]
  less pronounced transient tumor regression: three
[6]; doses of 20 to 30 mg/m^2
  bladder toxicity dose limiting: three
[6]; doses of 30 and 44 mg/m^2
  bladder toxicity, additional patients: two

## CC[C@@]1(O)C(=O)OCc2c1cc1n(c2=O)Cc2c-1nc1ccccc1c2CC[Si](C)(C)C [Karenitecin (BNP1350), (4S)-4-ethyl-4-hydroxy-11-[2-(trimethylsilyl)ethyl]-1H-pyrano[3′:4′:6,7]indolizino[1,2-b]quinoline-3,14(4H,12H)-dione]
Human cancer cell lines
  antitumor potency compared with Topotecan or SN-38: significantly more potent

## CC[C@@]1(O)C(=O)OCc2c1cc1n(c2=O)Cc2c-1nc1ccc(OC(=O)N3CCOCC3)cc1c2CC[Si](C)(C)C [Compound 12, 7-(2′-Trimethylsilanyl)ethyl-10-(4-morpholinecarbonyloxy) camptothecin]
[1]
  IC50: 65.6 nM
A2780/DX5 cells
  IC50 Ratio: 2.1
  IC50: 135 nM
